Test results taken from article PMC6063804 (EJNMMI Research, 2018).
Several values for one entry are separate records, joined by “and”; a condition that tells them apart may be missing. Identical values can stand only once. Like-named read-outs stand apart in the source and are kept apart here.

What was measured:
[1] = test system: ion channel binding site of NMDA receptors; experiment: [^18F]PK-209 brain PET, test–retest and kinetic modeling; assay type: in vivo, human; settings: for K i: net influx rate, individual subjects S1–S5
Method: In total, 20 PET scans were acquired on a Gemini TF-64 PET/CT scanner (Philips Medical Systems, Cleveland, OH, USA). Five subjects underwent [^18F]PK-209 test–retest (TRT) scans 31–61 days apart over a period of 211 days. Another five subjects underwent baseline and ketamine scans 13–161 days apart over a period of 258 days. At the start of each scan [^18F]PK-209 was injected as an intravenous bolus with a mean injected activity of 187 ± 7 MBq. All scans were performed between 12:00 and 15:00 h to minimize diurnal variation. Duration of daylight on each scan day was calculated to investigate seasonal changes in tracer binding. Dynamic PET data were acquired for 120 min and binned into 25 time frames (1 × 15, 3 × 5, 3 × 10, 4 × 60, 2 × 150, 2 × 300, 10 × 600 s). PET was followed by a low-dose CT (30 mAs, 120 kVp) for attenuation correction and localization. Data were reconstructed using a three-dimensional row action maximum likelihood reconstruction algorithm (3-D RAMLA). Acquired PET data were normalized and corrected for dead time, randoms, scatter, attenuation, and decay.
Prior to the PET studies, structural three-dimensional coronal T1-weighted magnetic resonance images (MRI) were acquired for all subjects on a 1.5T Sonata scanner (Siemens Medical Solutions, Erlangen, Germany) with 160 coronal slices using echo time 3.97 ms, repetition time 2700 ms, flip angle 8°, and voxel size 1.0 × 1.5 × 1.0 mm^3. Subject motion was checked by visual inspection of the alignment of intrasubject PET frames, and no frames were excluded due to excessive movement. T1-weighted MRI scans were co-registered to an average of the PET frames from ~ 4–70 min p.i. using VINCI software. The co-registered MRI scans were segmented into gray matter (GM), white matter, and extra-cerebral fluid, using PVE-lab. Subsequently, 68 regions of interest (ROIs), including whole brain, were derived from the Hammers atlas and used to extract GM time-activity curves (TACs). As a last step, the TACs of 60 out of the 67 ROIs were redefined into nine volume-weighted ROIs by combining the radioactivity at each timepoint according to the equation Bq¯=∑iαi×Bqi/∑iαi , where αi is the volume (in mm^3) of region i, and Bqi the counts per mm^3 of region i. The selection of ROIs was based on the widespread NMDA-R availability in the brain: frontal, temporal, occipital, and parietal cortices; hippocampus; thalamus; insula; brainstem; dorsal striatum; and cerebellum, as well as whole brain GM from the Hammers atlas. Standardized uptake values (SUV; equalling measured activity divided by injected dose per body weight) were calculated for whole brain GM.
Using the metabolite-corrected arterial plasma input function, all GM TACs were fitted to single-tissue (1T2k), two-tissue irreversible (2T3k), and reversible (2T4k) compartmental models, both with and without an additional parameter for fractional blood volume (VB). The non-metabolite-corrected arterial whole blood curve was used as input function for VB. The optimal tracer kinetic model for describing in vivo kinetics of [^18F]PK-209 was determined according to the Akaike Information Criterion (AIC). Depending on the model preference, outcome measures were the net influx constant (Ki = K1 k3/(k2 + k3)) or the distribution volume (VT=K1/k2(1+k3/k4)) . For subsequent group level analysis (e.g., TRT variability and ketamine effects), all scans were analyzed using the same, most preferred, tracer kinetic model. Non-displaceable distribution volumes (VND = K1/k2) as well as K1 and k3 values are also reported separately.
The absolute percentage TRT variability of kinetic parameters between test and retest scans was calculated using the equation TRT variability = 2 · (ρretest − ρtest)/(ρtest + ρretest) · 100, where ρ is the kinetic parameter of interest. The between-subject coefficient of variation was calculated as the standard deviation divided by the sample mean · 100. […]

[2] = assay type: in vivo, human; settings: for activity that could not be extracted / mean parent fraction: plasma; for mean parent fraction: all 20 scans
Method: All subjects received a radial artery cannula for continuous and manual arterial sampling. For each scan, an arterial input function was obtained using an on-line blood sampler (Veenstra Instruments, Joure, The Netherlands) with a withdrawal rate of 5 mL · min^−1 during the first 5 min and 2.5 mL · min^−1 from 5 to 60 min post injection (p.i.) in order to stay within blood volume sampling constraints. Continuous blood withdrawal was interrupted briefly to manually collect arterial blood samples (10 mL each) at set timepoints (5, 10, 20, 40, 60, 75, 90, 120 min p.i.). In several subjects, an arterial sample was taken immediately before PET and incubated with [^18F]PK-209 at 37 °C to compare radioactivity recovery fractions throughout the 120 min with extracted fractions of the arterial samples taken during PET. The samples were used to measure blood and plasma radioactivity concentrations, whole blood-to-plasma ratios, and plasma metabolite fractions of [^18F]PK-209. For the latter purpose, samples were analyzed using solid-phase extraction combined with HPLC using off-line radioactivity detection.
The final arterial plasma input function was derived using both continuous and discrete arterial blood data. The input function was corrected for plasma to whole blood ratio, metabolites, and time delay. For each scan, two additional plasma input functions were generated to investigate the effect of within-subject and between-subject variability in plasma data. For the within-subject averaged input function, the mean of PET1 and PET2 [^18F]PK-209 parent fractions per subject were used at each of the eight sample timepoints for both scans. For the population-averaged input function, the mean parent fractions for all five subjects in the TRT and ketamine groups (i.e., 10 scans) were taken at each timepoint. The manual arterial blood samples were also used for assessment of the plasma ketamine concentration. The area under the ketamine concentration–time curve was estimated by means of the trapezoidal rule.
The absolute percentage TRT variability of kinetic parameters between test and retest scans was calculated using the equation TRT variability = 2 · (ρretest − ρtest)/(ρtest + ρretest) · 100, where ρ is the kinetic parameter of interest. The between-subject coefficient of variation was calculated as the standard deviation divided by the sample mean · 100. […] SUV from 90 to 120 min (SUV90–120) was calculated as the mean of the last three mid-frame SUV values.

Question: For CSc1ccc(Cl)c(NC(=N)N(C)c2cccc(OC[18F])c2)c1 [[^18F]PK-209, 3-(2-chloro-5-(methylthio)phenyl)-1-(3-([^18F]fluoromethoxy)phenyl)-1-methylguanidine], which “Mean test K i” value ([1]; 2T3k_VB, population IF) is on record?
Answer: Its value is 0.0152 min⁻¹.

Question: And the “Mean retest K i” value ([1]; 2T3k_VB, single scan IF)?
Answer: Its value is 0.0143 min⁻¹.

Question: And the “Mean test K i” value ([1]; 2T3k_VB, single scan IF)?
Answer: Its value is 0.0183 min⁻¹.

Question: And the “Mean retest K 1” value ([1]; human, in vivo)?
Answer: Its value is 0.426 mL · cm^3 · min^−1.

Question: What about the “Mean retest V ND” value ([1]; human, in vivo) of the same molecule?
Answer: The value was 7.34.

Question: And the “Mean retest k 3” value ([1]; human, in vivo)?
Answer: The value was 0.0021 min⁻¹.

Question: And the “Mean test K 1” value ([1]; human, in vivo)?
Answer: Its value is 0.473 mL · cm^3 · min^−1.

Question: And the “Mean test K i” value ([1]; human, in vivo)?
Answer: The value was 0.0161 min⁻¹.

Question: What about the “Mean test V ND” value ([1]; human, in vivo) of the same molecule?
Answer: The value was 9.09.

Question: And the “Mean test k 3” value ([1]; human, in vivo)?
Answer: Its value is 0.0021 min⁻¹.

Question: And the “peak uptake SUV” value ([1]; human, in vivo)?
Answer: Its value is 3.6-5.7.

Question: And the “time of peak uptake” value ([1]; human, in vivo)?
Answer: The value was “around 10 min”.

Question: And the “whole brain SUV90–120” value ([1]; human, in vivo)?
Answer: Its value is 1.64.

Question: And the “brain activity as % of the peak” value ([1]; human, in vivo, 120 min)?
Answer: Its value is 25-40%.

Question: And the “defluorination (radioactivity uptake in jaw and skull)” value ([1]; in vivo)?
Answer: Its value is “no defluorination”.

Question: What about the K i ([1]; 2T3k_VB, population IF, retest scan) of the same molecule?
Answer: The K i was 0.0201 min⁻¹.

Question: And the K i ([1]; 2T3k_VB, population IF, test scan)?
Answer: Its K i is 0.0147 min⁻¹ and 0.0193 min⁻¹.

Question: What about the K i ([1]; 2T3k_VB, single scan IF, retest scan) of the same molecule?
Answer: The K i was 0.0182 min⁻¹ and 0.0152 min⁻¹.

Question: What about the K i ([1]; 2T3k_VB, within-subject IF, retest scan) of the same molecule?
Answer: Its K i is 0.0162 min⁻¹.

Question: And the K i ([1]; 2T3k_VB, within-subject IF, test scan)?
Answer: The K i was 0.0118 min⁻¹.

Question: And the “whole brain SUV90–120” value ([1]; test scans, average)?
Answer: Its value is 1.68.

Question: What about the “difference in mean blood-to-plasma ratios between test–retest and between baseline–ketamine scans” value ([2]; all eight measured timepoints) of the same molecule?
Answer: The value was under 3%.

Question: And the “peak radioactivity concentration in plasma, mean SUV” value ([2]; arterial plasma)?
Answer: Its value is 17.4 ± 2.8.

Question: What about the “plasma radioactivity as % of the peak” value ([2]; at 3 min) of the same molecule?
Answer: Its value is ~ 7%.

Question: What about the “fractional recovery of radioactivity from plasma” value ([2]; declined over time, stabilizing) of the same molecule?
Answer: Its value is “approximately 45%”.

Question: And the “activity that could not be extracted” value ([2]; 5 min p.i.)?
Answer: The value was 15 ± 3%.

Question: And the “activity that could not be extracted” value ([2]; 120 min p.i.)?
Answer: Its value is 54 ± 4%.

Question: And the mean parent fraction ([2]; 5 min p.i.)?
Answer: The mean parent fraction was 77 ± 7%.

Question: What about the mean parent fraction ([2]; 10 min p.i.) of the same molecule?
Answer: The mean parent fraction was 57 ± 9% and 57%.

Question: And the mean parent fraction ([2]; 20 min p.i.)?
Answer: Its mean parent fraction is 34 ± 5% and 34%.

Question: What about the mean parent fraction ([2]; 60 min p.i.) of the same molecule?
Answer: Its mean parent fraction is 19 ± 3%.

Question: What about the mean parent fraction ([2]; 120 min p.i.) of the same molecule?
Answer: The mean parent fraction was 14 ± 3%.

Question: What about the “parent fractions in baseline scans lower than the test–retest group” value ([2]; subjects 6 to 10, average) of the same molecule?
Answer: Its value is 16%.
